The assay is described as follows: Antiviral activity against Influenza A virus A/Parma/24/09 (H1N1) (Oseltamivir-resistant) assessed as reduction in plaque formation after 48 hrs by plaque reduction assay. The assay is classed as functional, Influenza A virus (A/Parma/24/2009(H1N1)). (In general: In a plaque reduction assay, fewer plaques than in the control indicate reduced infectivity or spread.)

With `Cc1cc(-c2ccccc2)nc2nc(C(=O)Nc3sc4c(c3C(N)=O)CCCCC4)nn12`, the EC50 was found to be 5 µM.
For `Cc1cc(-c2ccccc2)n2nc(C(=O)Nc3sc4c(c3C(N)=O)CCCCC4)nc2n1` the value was 25 µM.
Turning to `Cc1cc(-c2ccccc2)nc2nc(NC(=O)c3ccccc3)nn12`, the EC50 was 25 µM.
To `CCCOc1ccc(C(=O)Nc2nc3n(n2)C(c2ccccc2)C=C(C)N3)cc1` (centres undefined) belongs 49 µM.

By EC50 is commonly meant the concentration giving half of the maximal effect.

The values above are taken from ChEMBL document CHEMBL3576796, “A Broad Anti-influenza Hybrid Small Molecule That Potently Disrupts the Interaction of Polymerase Acidic Protein-Basic Protein 1 (PA-PB1) Subunits” (J Med Chem, 2015).
